How the values were obtained:
[1] = tested on: SSAT; assay: Hepatic, pancreatic and renal SSAT activity in syngenic and metallothionein-SSAT mice after analogue; type: in vivo, mouse; conditions: 24 h before sacrifice
Protocol: (§1) α-methylspermidine, Bis-α-methylspermine and α-methylspermine were administered in saline. […] The data are expressed as means ±S.D. For statistical analysis, the two-tailed Student's t test was used.

[2] = tested on: syngenic and metallothionein-SSAT mice; assay: Hepatic, pancreatic and renal polyamine concentration in syngenic and metallothionein-SSAT mice after analogue; type: in vivo, mouse; conditions: 24 h before sacrifice
Protocol: as §1

[3] = Tg (transgenic) mice, 12.5 mg/kg
[4] = Tg (transgenic) mice, 37.5 mg/kg

## CC(N)CCNCCCCNCCCN (stereo not drawn) [α-methylspermine, 1-methylspermine]
[1]; Sg (syngenic) mice, 12.5 mg/kg
  SSAT activity, Kidney: 3.65 ± 2.39 ^+ pmoles/10 min/ tissue wet weight
  SSAT activity, Liver: 0.47 pmoles/10 min/ tissue wet weight
  SSAT activity, Pancreas: 2.03 pmoles/10 min/ tissue wet weight
[1]; Sg (syngenic) mice, 25 mg/kg
  SSAT activity, Kidney: 2.76 ± 2.52 pmoles/10 min/ tissue wet weight
  SSAT activity, Liver: 0.26 pmoles/10 min/ tissue wet weight
  SSAT activity, Pancreas: 1.72 pmoles/10 min/ tissue wet weight
[1]; Sg (syngenic) mice, 37.5 mg/kg
  SSAT activity, Kidney: 4.29 ± 2.38 pmoles/10 min/ tissue wet weight
  SSAT activity, Liver: 0.75 pmoles/10 min/ tissue wet weight
  SSAT activity, Pancreas: 1.46 pmoles/10 min/ tissue wet weight
[1]; Sg (syngenic) mice, 50 mg/kg
  SSAT activity, Kidney: 3.20 ± 2.40 pmoles/10 min/ tissue wet weight
  SSAT activity, Liver: 0.52 pmoles/10 min/ tissue wet weight
  SSAT activity, Pancreas: 2.23 pmoles/10 min/ tissue wet weight
[1]; [3]
  SSAT activity, Kidney: 5.86 ± 1.91 pmoles/10 min/ tissue wet weight
  SSAT activity, Liver: 21.19 pmoles/10 min/ tissue wet weight
  SSAT activity, Pancreas: 609.10 pmoles/10 min/ tissue wet weight
[1]; Tg (transgenic) mice, 25 mg/kg
  SSAT activity, Kidney: 3.06 ± 2.23 pmoles/10 min/ tissue wet weight
  SSAT activity, Liver: 30.81 pmoles/10 min/ tissue wet weight
  SSAT activity, Pancreas: 561.36 pmoles/10 min/ tissue wet weight
[1]; [4]
  SSAT activity, Kidney: 3.47 ± 2.52 pmoles/10 min/ tissue wet weight
  SSAT activity, Liver: 24.88 pmoles/10 min/ tissue wet weight
  SSAT activity, Pancreas: 543.84 pmoles/10 min/ tissue wet weight
[1]; Tg (transgenic) mice, 50 mg/kg
  SSAT activity, Kidney: 2.95 ± 1.82 pmoles/10 min/ tissue wet weight
  SSAT activity, Liver: 39.44 pmoles/10 min/ tissue wet weight
  SSAT activity, Pancreas: 707.60 pmoles/10 min/ tissue wet weight
[2]; Sg (syngenic) mice, 12.5 mg/kg
  hepatic concentration, α-Methylspermine: 470.60 pmoles/mg tissue wet weight
  hepatic polyamine concentration, N^1-Acetylspermidine: 37.49 pmoles/mg tissue wet weight
  hepatic polyamine concentration, Putrescine: 39.46 pmoles/mg tissue wet weight
  hepatic polyamine concentration, Spermidine: 669.94 pmoles/mg tissue wet weight
  hepatic polyamine concentration, Spermine: 568.21 pmoles/mg tissue wet weight
  pancreatic polyamine concentration, N^1-Acetylspermidine: 56.32 pmoles/mg tissue wet weight
  pancreatic polyamine concentration, N^8-Acetylspermidine: 17.17 pmoles/mg tissue wet weight
  pancreatic polyamine concentration, Putrescine: 80.74 pmoles/mg tissue wet weight
  pancreatic polyamine concentration, Spermidine: 7952.04 pmoles/mg tissue wet weight
  pancreatic polyamine concentration, Spermine: 1048.44 pmoles/mg tissue wet weight
  renal concentration, α-Methylspermine: 197.48 ± 6.80 pmoles/mg tissue wet weight
  renal polyamine concentration, N^1-Acetylspermidine: 46.16 pmoles/mg tissue wet weight
  renal polyamine concentration, N^8-Acetylspermidine: 24.91 pmoles/mg tissue wet weight
  renal polyamine concentration, Putrescine: 48.17 pmoles/mg tissue wet weight
  renal polyamine concentration, Spermidine: 312.55 pmoles/mg tissue wet weight
  renal polyamine concentration, Spermine: 247.41 pmoles/mg tissue wet weight
[2]; Sg (syngenic) mice, 25 mg/kg
  hepatic concentration, α-Methylspermine: 420.20 pmoles/mg tissue wet weight
  hepatic polyamine concentration, Putrescine: 44.18 pmoles/mg tissue wet weight
  hepatic polyamine concentration, Spermidine: 1015.51 pmoles/mg tissue wet weight
  hepatic polyamine concentration, Spermine: 411.06 pmoles/mg tissue wet weight
  pancreatic polyamine concentration, N^1-Acetylspermidine: 19.45 pmoles/mg tissue wet weight
  pancreatic polyamine concentration, N^8-Acetylspermidine: 24.47 pmoles/mg tissue wet weight
  pancreatic polyamine concentration, Putrescine: 50.98 pmoles/mg tissue wet weight
  pancreatic polyamine concentration, Spermidine: 5421.66 pmoles/mg tissue wet weight
  pancreatic polyamine concentration, Spermine: 729.10 pmoles/mg tissue wet weight
  renal concentration, α-Methylspermine: 228.87 ± 6.44 pmoles/mg tissue wet weight
  renal polyamine concentration, N^1-Acetylspermidine: 59.48 pmoles/mg tissue wet weight
  renal polyamine concentration, N^8-Acetylspermidine: 25.80 pmoles/mg tissue wet weight
  renal polyamine concentration, Putrescine: 122.64 pmoles/mg tissue wet weight
  renal polyamine concentration, Spermidine: 215.41 pmoles/mg tissue wet weight
  renal polyamine concentration, Spermine: 272.18 pmoles/mg tissue wet weight
[2]; Sg (syngenic) mice, 37.5 mg/kg
  hepatic concentration, α-Methylspermine: 510.72 pmoles/mg tissue wet weight
  hepatic polyamine concentration, Spermidine: 830.89 pmoles/mg tissue wet weight
  hepatic polyamine concentration, Spermine: 485.75 pmoles/mg tissue wet weight
  pancreatic polyamine concentration, Putrescine: 36.15 pmoles/mg tissue wet weight
  pancreatic polyamine concentration, Spermidine: 5806.20 pmoles/mg tissue wet weight
  pancreatic polyamine concentration, Spermine: 804.72 pmoles/mg tissue wet weight
  renal concentration, α-Methylspermine: 245.67 ± 38.85 pmoles/mg tissue wet weight
  renal polyamine concentration, N^1-Acetylspermidine: 30.29 pmoles/mg tissue wet weight
  renal polyamine concentration, N^8-Acetylspermidine: 24.30 pmoles/mg tissue wet weight
  renal polyamine concentration, Putrescine: 59.01 pmoles/mg tissue wet weight
  renal polyamine concentration, Spermidine: 244.82 pmoles/mg tissue wet weight
  renal polyamine concentration, Spermine: 207.72 pmoles/mg tissue wet weight
[2]; Sg (syngenic) mice, 50 mg/kg
  hepatic concentration, α-Methylspermine: 521.41 pmoles/mg tissue wet weight
  hepatic polyamine concentration, N^1-Acetylspermidine: 45.74 pmoles/mg tissue wet weight
  hepatic polyamine concentration, N^8-Acetylspermidine: 15.33 pmoles/mg tissue wet weight
  hepatic polyamine concentration, Putrescine: 22.71 pmoles/mg tissue wet weight
  hepatic polyamine concentration, Spermidine: 780.24 pmoles/mg tissue wet weight
  hepatic polyamine concentration, Spermine: 419.39 pmoles/mg tissue wet weight
  pancreatic polyamine concentration, N^8-Acetylspermidine: 19.89 pmoles/mg tissue wet weight
  pancreatic polyamine concentration, Putrescine: 107.70 pmoles/mg tissue wet weight
  pancreatic polyamine concentration, Spermidine: 6839.92 pmoles/mg tissue wet weight
  pancreatic polyamine concentration, Spermine: 811.45 pmoles/mg tissue wet weight
  renal concentration, α-Methylspermine: 263.69 ± 49.92 pmoles/mg tissue wet weight
  renal polyamine concentration, N^1-Acetylspermidine: 48.23 pmoles/mg tissue wet weight
  renal polyamine concentration, N^8-Acetylspermidine: 21.09 pmoles/mg tissue wet weight
  renal polyamine concentration, Putrescine: 160.04 pmoles/mg tissue wet weight
  renal polyamine concentration, Spermidine: 193.19 pmoles/mg tissue wet weight
  renal polyamine concentration, Spermine: 258.42 pmoles/mg tissue wet weight
[2]; [3]
  hepatic concentration, α-Methylspermine: 138.89 pmoles/mg tissue wet weight
  hepatic polyamine concentration, N^1-Acetylspermidine: 242.81 pmoles/mg tissue wet weight
  hepatic polyamine concentration, Putrescine: 857.28 pmoles/mg tissue wet weight
  hepatic polyamine concentration, Spermidine: 717.42 pmoles/mg tissue wet weight
  hepatic polyamine concentration, Spermine: 62.74 pmoles/mg tissue wet weight
  pancreatic concentration, α-Methylspermine: 132.85 ± 26.34 pmoles/mg tissue wet weight
  pancreatic polyamine concentration, N^1-Acetylspermidine: 154.67 pmoles/mg tissue wet weight
  pancreatic polyamine concentration, Putrescine: 5691.31 pmoles/mg tissue wet weight
  pancreatic polyamine concentration, Spermidine: 2304.42 pmoles/mg tissue wet weight
  pancreatic polyamine concentration, Spermine: 42.35 pmoles/mg tissue wet weight
  renal concentration, α-Methylspermine: 198.34 ± 10.11 pmoles/mg tissue wet weight
  renal polyamine concentration, N^1-Acetylspermidine: 38.55 pmoles/mg tissue wet weight
  renal polyamine concentration, N^8-Acetylspermidine: 24.62 pmoles/mg tissue wet weight
  renal polyamine concentration, Putrescine: 58.16 pmoles/mg tissue wet weight
  renal polyamine concentration, Spermidine: 247.60 pmoles/mg tissue wet weight
  renal polyamine concentration, Spermine: 208.03 pmoles/mg tissue wet weight
[2]; Tg (transgenic) mice, 25 mg/kg
  hepatic concentration, α-Methylspermidine: 197.89 ± 47.51 pmoles/mg tissue wet weight
  hepatic concentration, α-Methylspermine: 145.99 pmoles/mg tissue wet weight
  hepatic polyamine concentration, N^1-Acetylspermidine: 317.98 pmoles/mg tissue wet weight
  hepatic polyamine concentration, N^8-Acetylspermidine: 36.49 pmoles/mg tissue wet weight
  hepatic polyamine concentration, Putrescine: 872.47 pmoles/mg tissue wet weight
  hepatic polyamine concentration, Spermidine: 349.61 pmoles/mg tissue wet weight
  hepatic polyamine concentration, Spermine: 49.71 pmoles/mg tissue wet weight
  pancreatic concentration, α-Methylspermine: 130.62 ± 33.84 pmoles/mg tissue wet weight
  pancreatic polyamine concentration, N^1-Acetylspermidine: 327.88 pmoles/mg tissue wet weight
  pancreatic polyamine concentration, Putrescine: 5798.24 pmoles/mg tissue wet weight
  pancreatic polyamine concentration, Spermidine: 2449.50 pmoles/mg tissue wet weight
  pancreatic polyamine concentration, Spermine: 37.63 pmoles/mg tissue wet weight
  renal concentration, α-Methylspermine: 227.76 ± 11.79 pmoles/mg tissue wet weight
  renal polyamine concentration, N^1-Acetylspermidine: 42.95 pmoles/mg tissue wet weight
  renal polyamine concentration, N^8-Acetylspermidine: 25.16 pmoles/mg tissue wet weight
  renal polyamine concentration, Putrescine: 68.39 pmoles/mg tissue wet weight
  renal polyamine concentration, Spermidine: 156.66 pmoles/mg tissue wet weight
  renal polyamine concentration, Spermine: 209.57 pmoles/mg tissue wet weight
[2]; [4]
  hepatic concentration, α-Methylspermidine: 274.07 ± 18.43 pmoles/mg tissue wet weight
  hepatic concentration, α-Methylspermine: 203.75 pmoles/mg tissue wet weight
  hepatic polyamine concentration, N^1-Acetylspermidine: 180.48 pmoles/mg tissue wet weight
  hepatic polyamine concentration, N^8-Acetylspermidine: 14.15 pmoles/mg tissue wet weight
  hepatic polyamine concentration, Putrescine: 774.33 pmoles/mg tissue wet weight
  hepatic polyamine concentration, Spermidine: 305.70 pmoles/mg tissue wet weight
  hepatic polyamine concentration, Spermine: 47.47 pmoles/mg tissue wet weight
  pancreatic concentration, α-Methylspermine: 105.85 ± 91.76 pmoles/mg tissue wet weight
  pancreatic polyamine concentration, N^1-Acetylspermidine: 176.49 pmoles/mg tissue wet weight
  pancreatic polyamine concentration, Putrescine: 7426.10 pmoles/mg tissue wet weight
  pancreatic polyamine concentration, Spermidine: 2106.09 pmoles/mg tissue wet weight
  pancreatic polyamine concentration, Spermine: 51.89 pmoles/mg tissue wet weight
  renal concentration, α-Methylspermine: 224.06 ± 27.10 pmoles/mg tissue wet weight
  renal polyamine concentration, N^1-Acetylspermidine: 32.33 pmoles/mg tissue wet weight
  renal polyamine concentration, N^8-Acetylspermidine: 24.59 pmoles/mg tissue wet weight
  renal polyamine concentration, Putrescine: 95.60 pmoles/mg tissue wet weight
  renal polyamine concentration, Spermidine: 233.85 pmoles/mg tissue wet weight
  renal polyamine concentration, Spermine: 158.91 pmoles/mg tissue wet weight
[2]; Tg (transgenic) mice, 50 mg/kg
  hepatic concentration, α-Methylspermidine: 255.30 ± 60.90 pmoles/mg tissue wet weight
  hepatic concentration, α-Methylspermine: 168.36 pmoles/mg tissue wet weight
  hepatic polyamine concentration, N^1-Acetylspermidine: 265.90 pmoles/mg tissue wet weight
  hepatic polyamine concentration, Putrescine: 1057.25 pmoles/mg tissue wet weight
  hepatic polyamine concentration, Spermidine: 196.67 pmoles/mg tissue wet weight
  hepatic polyamine concentration, Spermine: 38.02 pmoles/mg tissue wet weight
  pancreatic concentration, α-Methylspermine: 185.90 ± 20.82 pmoles/mg tissue wet weight
  pancreatic polyamine concentration, N^1-Acetylspermidine: 284.83 pmoles/mg tissue wet weight
  pancreatic polyamine concentration, Putrescine: 9027.03 pmoles/mg tissue wet weight
  pancreatic polyamine concentration, Spermidine: 3570.11 pmoles/mg tissue wet weight
  pancreatic polyamine concentration, Spermine: 70.53 pmoles/mg tissue wet weight
  renal concentration, α-Methylspermine: 319.33 ± 19.28 pmoles/mg tissue wet weight
  renal polyamine concentration, N^1-Acetylspermidine: 44.20 pmoles/mg tissue wet weight
  renal polyamine concentration, N^8-Acetylspermidine: 24.48 pmoles/mg tissue wet weight
  renal polyamine concentration, Putrescine: 91.94 pmoles/mg tissue wet weight
  renal polyamine concentration, Spermidine: 155.85 pmoles/mg tissue wet weight
  renal polyamine concentration, Spermine: 205.04 pmoles/mg tissue wet weight

Reference: patent publication US7202280B2, “Methods for the treatment and prevention of pancreatitis and for induction of liver regeneration” (priority 2002, dated 2007)
